Results as given in ChEMBL document CHEMBL3132826, “Investigation of a tetrahydroisoquinoline scaffold as dual-action steroid sulfatase inhibitors generated by parallel solid-phase synthesis” (Medchemcomm, 2013).

Legend:
[1] = molecular target: T1, Steryl-sulfatase (Homo sapiens) (UniProt P08842); assay: Inhibition of STS (unknown origin) expressed in HEK-293 cells assessed as transformation of [3H]-E1S into E1 at 1 uM by […]; type: cell-based; conditions: HEK293
T1 sequence (whole entry): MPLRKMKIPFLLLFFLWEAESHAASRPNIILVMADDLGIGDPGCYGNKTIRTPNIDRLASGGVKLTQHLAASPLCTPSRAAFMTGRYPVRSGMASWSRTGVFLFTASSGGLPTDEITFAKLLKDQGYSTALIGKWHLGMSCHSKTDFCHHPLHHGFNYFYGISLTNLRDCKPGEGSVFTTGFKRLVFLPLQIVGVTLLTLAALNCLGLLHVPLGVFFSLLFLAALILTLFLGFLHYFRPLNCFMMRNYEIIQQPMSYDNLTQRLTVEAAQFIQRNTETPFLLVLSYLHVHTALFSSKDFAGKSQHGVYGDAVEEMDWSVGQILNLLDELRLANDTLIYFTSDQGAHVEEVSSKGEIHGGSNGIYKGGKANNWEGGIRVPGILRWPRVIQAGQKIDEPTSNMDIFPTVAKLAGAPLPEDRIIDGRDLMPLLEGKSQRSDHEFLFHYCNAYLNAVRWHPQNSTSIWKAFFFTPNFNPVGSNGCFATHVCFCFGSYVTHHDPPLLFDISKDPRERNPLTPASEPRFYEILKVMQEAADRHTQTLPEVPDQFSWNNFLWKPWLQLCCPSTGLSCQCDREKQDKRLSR

[2] = molecular target: T1, Steryl-sulfatase (Homo sapiens); assay: Inhibition of STS (unknown origin) expressed in HEK-293 cells assessed as transformation of [3H]-E1S into E1 at 0.1 uM by […]; type: cell-based; conditions: HEK293
MCF7 [3] = assay: Estrogenic activity in human MCF7 cells assessed as cell proliferation at 1 uM by MTS assay relative to basal level; type: ADME, cell-based; conditions: mcf7, 1 µM
MCF7 [4] = assay: Estrogenic activity in human MCF7 cells assessed as cell proliferation at 0.1 uM by MTS assay relative to basal level; type: ADME, cell-based; conditions: mcf7, 0.1 µM
MCF7 [5] = assay: Estrogenic activity in human MCF7 cells assessed as cell proliferation at 0.01 uM by MTS assay relative to basal level; type: ADME, cell-based; conditions: mcf7, 0.01 µM

| SMILES | inhibition [1] | inhibition [2] | Activity (MCF7 [3]) | Activity (MCF7 [4]) | Activity (MCF7 [5]) |
| --- | --- | --- | --- | --- | --- |
| CCN(Cc1ccccc1)Cc1ccc(S(=O)(=O)N2CCc3ccc(OS(N)(=O)=O)cc3C2)cc1 | 31% | 10% | – | – | – |
| NS(=O)(=O)Oc1ccc2c(c1)CN(C(=O)c1cccc(N3CCc4ccccc4C3)c1)CC2 | 50.2% | 24.1% | – | – | – |
| CN(C)CCN(Cc1ccccc1)c1cccc(C(=O)N2CCc3ccc(O)cc3C2)c1 | – | – | 30.5% | 7.4% | 4.1% |
| CCCN(Cc1ccccc1)c1cccc(C(=O)N2CCc3ccc(OS(N)(=O)=O)cc3C2)c1 | 67.4% | 23.1% | – | – | – |
| NS(=O)(=O)Oc1ccc2c(c1)CN(C(=O)c1cccc(N3CCC(N4CCCCC4)CC3)c1)CC2 | 8% | 0% | – | – | – |
| CCN(Cc1ccc(F)cc1)c1cccc(C(=O)N2CCc3ccc(OS(N)(=O)=O)cc3C2)c1 | 66.5% | 10.9% | – | – | – |
| CCN(Cc1ccncc1)c1ccc(C(=O)N2CCc3ccc(OS(N)(=O)=O)cc3C2)cc1 | 86.6% | 47% | – | – | – |
| O=C(c1ccc(N(CCCO)Cc2ccccc2)cc1)N1CCc2ccc(O)cc2C1 | – | – | 4% | 0% | 0% |
| NS(=O)(=O)Oc1ccc2c(c1)CN(C(=O)c1ccc(N(CCCO)Cc3ccccc3)cc1)CC2 | 64.3% | 5.7% | – | – | – |
| CN(C)CCN(CCN(C)C)c1cccc(C(=O)N2CCc3ccc(OS(N)(=O)=O)cc3C2)c1 | 17.1% | 0% | – | – | – |
| NS(=O)(=O)Oc1ccc2c(c1)CN(C(=O)c1cccc(N3CCOCC3)c1)CC2 | 20.9% | 0% | – | – | – |
| NS(=O)(=O)Oc1ccc2c(c1)CN(C(=O)c1cccc(N3CCN(c4ncccn4)CC3)c1)CC2 | 24.4% | 1.6% | – | – | – |
| NS(=O)(=O)Oc1ccc2c(c1)CN(C(=O)c1ccc(N3CCOCC3)cc1)CC2 | 50.6% | 10.9% | – | – | – |
| CCN(Cc1cccnc1)c1ccc(C(=O)N2CCc3ccc(OS(N)(=O)=O)cc3C2)cc1 | 85.2% | 35.7% | – | – | – |
| NS(=O)(=O)Oc1ccc2c(c1)CN(C(=O)c1ccc(N3CCc4ccccc4C3)cc1)CC2 | 83% | 56% | – | – | – |
| NS(=O)(=O)Oc1ccc2c(c1)CN(C(=O)c1ccc(N(Cc3ccccc3)Cc3ccco3)cc1)CC2 | 98.2% | 90.8% | – | – | – |
| NS(=O)(=O)Oc1ccc2c(c1)CN(C(=O)c1ccc(N(CCO)Cc3ccccc3)cc1)CC2 | 78% | 27.9% | – | – | – |
| CCN(Cc1ccccn1)c1cccc(C(=O)N2CCc3ccc(OS(N)(=O)=O)cc3C2)c1 | 19.9% | 6.5% | – | – | – |
| CCN(Cc1cccc(Br)c1)c1ccc(C(=O)N2CCc3ccc(O)cc3C2)cc1 | – | – | 18.3% | 0% | 1.8% |
| CCN(Cc1ccccn1)c1cccc(C(=O)N2CCc3ccc(O)cc3C2)c1 | – | – | 87.3% | 58.4% | 10.6% |
| O=C(c1cccc(N(CCO)Cc2ccccc2)c1)N1CCc2ccc(O)cc2C1 | – | – | 12% | 3% | 0.5% |

| SMILES | inhibition [1] | inhibition [2] | Activity (MCF7 [3]) | Activity (MCF7 [4]) | Activity (MCF7 [5]) |
| --- | --- | --- | --- | --- | --- |
| CC(C)CCN(CCC(C)C)c1cccc(C(=O)N2CCc3ccc(OS(N)(=O)=O)cc3C2)c1 | 75.9% | 32.3% | – | – | – |
| CN(C)CCN(CCN(C)C)c1ccc(C(=O)N2CCc3ccc(OS(N)(=O)=O)cc3C2)cc1 | 15.9% | 3.8% | – | – | – |
| CN(C)CCCN(Cc1ccccc1)c1cccc(C(=O)N2CCc3ccc(OS(N)(=O)=O)cc3C2)c1 | 26% | 23.8% | – | – | – |
| CCN(Cc1cccnc1)c1cccc(C(=O)N2CCc3ccc(OS(N)(=O)=O)cc3C2)c1 | 33.5% | 14.3% | – | – | – |
| CC(C)CCN(CCC(C)C)c1cccc(C(=O)N2CCc3ccc(O)cc3C2)c1 | – | – | 10.6% | 0% | 0% |
| NS(=O)(=O)Oc1ccc2c(c1)CN(C(=O)c1cccc(N(Cc3ccccc3)Cc3ccco3)c1)CC2 | 90.5% | 27.5% | – | – | – |
| CCN(Cc1ccc(Br)cc1)c1cccc(C(=O)N2CCc3ccc(OS(N)(=O)=O)cc3C2)c1 | 84.5% | 24.2% | – | – | – |
| NS(=O)(=O)Oc1ccc2c(c1)CN(C(=O)c1cccc(N3CCCCC3)c1)CC2 | 11.9% | 1% | – | – | – |
| NS(=O)(=O)Oc1ccc2c(c1)CN(C(=O)c1ccc(N3CCSCC3)cc1)CC2 | 80.2% | 32.3% | – | – | – |
| CCN(Cc1cccc(Br)c1)c1ccc(C(=O)N2CCc3ccc(OS(N)(=O)=O)cc3C2)cc1 | 97.2% | 80.2% | – | – | – |
| CCCN(Cc1ccccc1)c1ccc(C(=O)N2CCc3ccc(OS(N)(=O)=O)cc3C2)cc1 | 94.3% | 64.8% | – | – | – |
| CN(C)CCN(Cc1ccccc1)c1ccc(C(=O)N2CCc3ccc(OS(N)(=O)=O)cc3C2)cc1 | 57.8% | 13.9% | – | – | – |
| CCN(Cc1ccc(Br)cc1)c1cccc(C(=O)N2CCc3ccc(O)cc3C2)c1 | – | – | 5.5% | 0% | 0% |
| CCN(Cc1ccc(F)cc1)c1cccc(C(=O)N2CCc3ccc(O)cc3C2)c1 | – | – | 101.3% | 31.9% | 9.5% |
| CN(C)CCCN(Cc1ccccc1)c1cccc(C(=O)N2CCc3ccc(O)cc3C2)c1 | – | – | 5.4% | 0% | 0% |
| NS(=O)(=O)Oc1ccc2c(c1)CN(C(=O)c1ccc(N3CCN(Cc4ccccc4)CC3)cc1)CC2 | 75.8% | 20.8% | – | – | – |
| CCN(Cc1ccccn1)c1ccc(C(=O)N2CCc3ccc(OS(N)(=O)=O)cc3C2)cc1 | 87.7% | 42.5% | – | – | – |
| NS(=O)(=O)Oc1ccc2c(c1)CN(C(=O)c1ccc(N3CCC(N4CCCCC4)CC3)cc1)CC2 | 53.7% | 8.5% | – | – | – |
| NS(=O)(=O)Oc1ccc2c(c1)CN(C(=O)c1cccc(N(CCCO)Cc3ccccc3)c1)CC2 | 37.3% | 25.8% | – | – | – |
| CCCN(CCC)c1cccc(C(=O)N2CCc3ccc(OS(N)(=O)=O)cc3C2)c1 | 54.8% | 8.3% | – | – | – |
| CN(CCN1CCCCC1)c1cccc(C(=O)N2CCc3ccc(OS(N)(=O)=O)cc3C2)c1 | 30.8% | 24.5% | – | – | – |

| SMILES | inhibition [1] | inhibition [2] | Activity (MCF7 [3]) | Activity (MCF7 [4]) | Activity (MCF7 [5]) |
| --- | --- | --- | --- | --- | --- |
| CN1CCN(c2cccc(C(=O)N3CCc4ccc(OS(N)(=O)=O)cc4C3)c2)CC1 | 12.6% | 0% | – | – | – |
| CN(CCCN1CCCCC1)c1ccc(C(=O)N2CCc3ccc(OS(N)(=O)=O)cc3C2)cc1 | 40.7% | 17.4% | – | – | – |
| NS(=O)(=O)Oc1ccc2c(c1)CN(C(=O)c1cccc(N(CCO)Cc3ccccc3)c1)CC2 | 32.4% | 26.7% | – | – | – |
| CN1CCN(c2ccc(C(=O)N3CCc4ccc(OS(N)(=O)=O)cc4C3)cc2)CC1 | 23.3% | 2.9% | – | – | – |
| CCN(Cc1ccc(F)cc1)c1ccc(C(=O)N2CCc3ccc(OS(N)(=O)=O)cc3C2)cc1 | 91.2% | 69.1% | – | – | – |
| CCN(Cc1ccc(Br)cc1)c1ccc(C(=O)N2CCc3ccc(OS(N)(=O)=O)cc3C2)cc1 | 95.9% | 78.2% | – | – | – |
| NS(=O)(=O)Oc1ccc2c(c1)CN(C(=O)c1cccc(N3CCN(Cc4ccccc4)CC3)c1)CC2 | 23.7% | 0% | – | – | – |
| CCN(Cc1cccc(Br)c1)c1cccc(C(=O)N2CCc3ccc(OS(N)(=O)=O)cc3C2)c1 | 24.9% | 20.9% | – | – | – |
| CCN(Cc1ccccc1)c1cccc(C(=O)N2CCc3ccc(OS(N)(=O)=O)cc3C2)c1 | 69% | 17.3% | – | – | – |
| CCN(Cc1ccncc1)c1cccc(C(=O)N2CCc3ccc(OS(N)(=O)=O)cc3C2)c1 | 52.8% | 33.3% | – | – | – |
| CN(C)CCN(Cc1ccccc1)c1cccc(C(=O)N2CCc3ccc(OS(N)(=O)=O)cc3C2)c1 | 28.6% | 0% | – | – | – |
| CC(C)CCN(CCC(C)C)c1ccc(C(=O)N2CCc3ccc(OS(N)(=O)=O)cc3C2)cc1 | 90.8% | 47% | – | – | – |
| CCN(Cc1ccccc1)Cc1ccc(CN2CCc3ccc(OS(N)(=O)=O)cc3C2)cc1 | 17% | 1% | – | – | – |
| NS(=O)(=O)Oc1ccc2c(c1)CN(C(=O)c1cccc(N3CCC(Cc4ccccc4)CC3)c1)CC2 | 41.9% | 1.4% | – | – | – |
| NS(=O)(=O)Oc1ccc2c(c1)CN(C(=O)c1cccc(N3CCSCC3)c1)CC2 | 39.6% | 2.3% | – | – | – |
| NS(=O)(=O)Oc1ccc2c(c1)CN(C(=O)c1ccc(N3CCN(c4ncccn4)CC3)cc1)CC2 | 41.9% | 14.7% | – | – | – |
| CN(C)CCCN(Cc1ccccc1)c1ccc(C(=O)N2CCc3ccc(OS(N)(=O)=O)cc3C2)cc1 | 61.6% | 16.2% | – | – | – |
| NS(=O)(=O)Oc1ccc2c(c1)CN(C(=O)c1ccc(N3CCCCC3)cc1)CC2 | 38.3% | 11.5% | – | – | – |
| CN(CCN1CCCCC1)c1ccc(C(=O)N2CCc3ccc(OS(N)(=O)=O)cc3C2)cc1 | 26.8% | 0.3% | – | – | – |
| CN(CCCN1CCCCC1)c1cccc(C(=O)N2CCc3ccc(OS(N)(=O)=O)cc3C2)c1 | 30.6% | 24.1% | – | – | – |
